For 25 compounds, IC50 results are on record in patent US20160318866A1, “SUBSTITUTED BIPIPERIDINYL DERIVATIVES” (Bayer Pharma Aktiengesellschaft, priority 2013, published 2016).

Where a name gives a salt, the structure may show the parent alone.

This assay concerns the target T1, human α2C receptor (Homo sapiens, UniProt P18825).
T1 construct: expressed in transfected cells; host or cells: CHO cells, also recombinantly expressing chimeric G protein Gαqi3 and mitochondrial obelin (mtOb)
T1 sequence (P18825 1-462): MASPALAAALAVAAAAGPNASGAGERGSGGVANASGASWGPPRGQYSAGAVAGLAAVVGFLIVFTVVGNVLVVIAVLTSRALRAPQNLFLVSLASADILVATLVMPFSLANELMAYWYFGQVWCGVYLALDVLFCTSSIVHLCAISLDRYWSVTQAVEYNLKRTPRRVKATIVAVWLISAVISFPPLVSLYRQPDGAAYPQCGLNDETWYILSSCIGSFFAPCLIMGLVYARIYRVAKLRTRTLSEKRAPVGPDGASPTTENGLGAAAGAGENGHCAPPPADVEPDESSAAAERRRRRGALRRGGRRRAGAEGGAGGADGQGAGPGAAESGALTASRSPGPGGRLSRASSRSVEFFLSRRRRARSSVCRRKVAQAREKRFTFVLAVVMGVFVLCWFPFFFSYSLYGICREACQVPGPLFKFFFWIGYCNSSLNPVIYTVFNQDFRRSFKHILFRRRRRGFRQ
Description: Antagonism against the adrenoreceptor α2C (luminescence, recombinant CHO cell line). Type of assay: cell-based. The note with it: antagonism against adrenoreceptor α2C; noradrenaline 20 nM; tested up to 10 μM; read-out: IC50. In short, it runs like this: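 CHO cells expressing human α2C receptor with chimeric Gαqi3 and mitochondrial obelin, loaded with 2.5 μg/ml coelenterazine for one day at 30 °C.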
As to `C[C@@H]1CCCN(C2CCN(C(=O)c3ccc(C(=O)NC(CO)c4ccccc4F)cc3)CC2)C1` (stereo partly drawn) [Example 94, N-[1-(2-Fluorophenyl)-2-hydroxyethyl]-4-{[(3R)-3-methyl-1,4′-bipiperidin-1′-yl]carbonyl}benzamide], the IC50 worked out at 25 nM.

Regarding `CC1CCCN(C2CCN(C(=O)c3ccc(C(=O)NC(C)(C)c4ccccc4Cl)cc3)CC2)C1` (stereo not shown) [Example 78, N-[2-(2-Chlorophenyl)propan-2-yl]-4-[(3-methyl-1,4′-bipiperidin-1′-yl)carbonyl]benzamide trifluoroacetic acid salt], the IC50 worked out at 24 nM.

With `CC1CCCN(C2CCN(C(=O)c3ccc(C4(CNC=O)CCC4)cc3)CC2)C1` (stereo not shown) [Example 66, N-[(1-{4-[(3-Methyl-1,4′-bipiperidin-1′-yl)carbonyl]phenyl}cyclobutyl)methyl]formamide hydrochloride], the IC50 was determined as 15 nM. For `CC1CCCN(C2CCN(C(=O)c3ccc(C(=O)NCc4ccnc(Cl)c4)cc3)CC2)C1` (stereo not shown) [Example 75, N-[(2-Chloropyridin-4-yl)methyl]-4-[(3-methyl-1,4′-bipiperidin-1′-yl)carbonyl]benzamide trifluoroacetic acid salt], the IC50 was 36 nM. The figure for `CC1=C(C)CN(C2CCN(C(=O)c3ccc(C(C)(C)C)cc3)CC2)CC1` [Example 17, 1-[1-(4-tert-Butylbenzoyl)piperidin-4-yl]-4,5-dimethyl-1,2,3,6-tetrahydropyridine] is 34 nM; for `C[C@@H]1CCCN(C2CCN(C(=O)c3ccc(C(=O)NC(c4ccc(C(F)(F)F)cc4)C(F)(F)F)cc3)CC2)C1` (stereo partly drawn) [Example 85, 4-{[(3R)-3-Methyl-1,4′-bipiperidin-1′-yl]carbonyl}-N-{2,2,2-trifluoro-1-[4-(trifluoromethyl)phenyl]ethyl}benzamide trifluoroacetic acid salt] it is 200 nM.

Turning to `CC(C)(O)c1ccc(C(=O)N2CCC(N3CCCC(OCC4CC4)C3)CC2)cc1` (stereo not shown) [Example 128, [3-(Cyclopropylmethoxy)-1,4′-bipiperidin-1′-yl][4-(2-hydroxypropan-2-yl)phenyl]methanone], the concentration for half-maximal inhibition (IC50) came to 36 nM. The figure for `CCC1CCCN(C2CCN(C(=O)c3ccc(C(C)(C)O)cc3)CC2)C1` (stereo not shown) [Example 114, [3-Ethyl-1,4′-bipiperidin-1′-yl][4-(2-hydroxypropan-2-yl)phenyl]methanone] is 72 nM.

Regarding `C[C@@H]1CCCN(C2CCN(C(=O)c3ccc(C(=O)NCc4ncccc4F)cc3)CC2)C1` [Example 98, N-[(3-Fluoropyridin-2-yl)methyl]-4-{[(3R)-3-methyl-1,4′-bipiperidin-1′-yl]carbonyl}benzamide], the IC50 turned out to be 27 nM.

`CC(C)(O)c1ccc(C(=O)N2CCC(N3CCCC(COC4CCC4)C3)CC2)cc1` (single isomer, unassigned; enantiomer 2) [Example 117, {3-[(Cyclobutyloxy)methyl]-1,4′-bipiperidin-1′-yl}[4-(2-hydroxypropan-2-yl)phenyl]methanone (enantiomer 2)]: the IC50 came out at 5 nM.

`CC1CCN(C(=O)c2ccc(C(=O)N3CCC(N4CCCC(C)C4)CC3)cc2)C(C)C1` (stereo not shown) [Example 46, (2,4-dimethylpiperidin-1-yl){4-[(3-methyl-1,4′-bipiperidin-1′-yl)carbonyl]phenyl} methanone]: the half-inhibitory concentration (IC50) came to 128 nM.

Take `COCC1CCCN(C2CCN(C(=O)c3ccc(C(=O)N(C)Cc4c(F)cccc4F)cc3)CC2)C1` (stereo not shown) [Example 96, N-(2,6-Difluorobenzyl)-4-{[3-(methoxymethyl)-1,4′-bipiperidin-1′-yl]carbonyl}-N-methylbenzamide trifluoroacetic acid salt]: the IC50 was 10 nM. Take `CCOC(=O)c1ccc(C(=O)N2CCC(N3CCCC(C)C3)CC2)cc1` (stereo not shown) [Example 32, 1-{1-[4-(Ethoxycarbonyl)benzoyl]piperidin-4-yl}-3-methylpiperidine trifluoroacetic acid salt]: the IC50 was found to be 222 nM. Consider `CCCCN(C)C(=O)c1ccc(C(=O)N2CCC(N3CCCC(C)C3)CC2)cc1` (stereo not shown) [Example 35, N-Butyl-N-methyl-4-[(3-methyl-1,4′-bipiperidin-1′-yl)carbonyl]benzamide], for which the IC50 is 124 nM. Consider `CC1CCCN(C2CCN(C(=O)c3ccc(C(=O)N(C)CC4(C)COC4)cc3)CC2)C1` (stereo not shown) [Example 52, N-methyl-4-[(3-methyl-1,4′-bipiperidin-1′-yl)carbonyl]-N-[(3-methyloxetan-3-yl)methyl]benzamide], for which the half-inhibitory concentration (IC50) came out at 182 nM. Take `Cc1ncccc1CNC(=O)c1ccc(C(=O)N2CCC(N3CCC[C@@H](C)C3)CC2)cc1` [Example 95, 4-{[(3R)-3-Methyl-1,4′-bipiperidin-1′-yl]carbonyl}-N-[(2-methylpyridin-3-yl)methyl]benzamide]: the IC50 worked out at 47 nM.

In the case of `CC1CCCN(C2CCN(C(=O)c3ccc(C(C)(C)CO)cc3)CC2)C1` (stereo not shown) [Example 28, 1-{1-[4-(1-Hydroxy-2-methylpropan-2-yl)benzoyl]piperidin-4-yl}-3-methylpiperidine trifluoroacetic acid salt], the IC50 came to 156 nM.

In the case of `C[C@@H]1CCCN(C2CCN(C(=O)c3ccc(C(=O)NCc4cc(Cl)ccn4)cc3)CC2)C1` [Example 90, N-[(4-Chloropyridin-2-yl)methyl]-4-{[(3R)-3-methyl-1,4′-bipiperidin-1′-yl]carbonyl}benzamide], the IC50 was determined as 28 nM. Take `CC1CCCN(C2CCN(C(=O)c3ccc(C(=O)NC(C)C(C)C)cc3)CC2)C1` (stereo not shown) [Example 47, 4-[(3-methyl-1,4′-bipiperidin-1′-yl)carbonyl]-N-(3-methylbutan-2-yl)benzamide]: the IC50 was 150 nM. The figure for `CC(C)(C)c1ccc(C(=O)N2CCC(N3CCCC(OC(=O)NC4CC4)C3)CC2)cc1` (stereo not shown) [Example 16, 1′-(4-tert-Butylbenzoyl)-1,4′-bipiperidin-3-yl cyclopropylcarbamate] is 380 nM; for `CC1CCCN(C2CCN(C(=O)c3ccc(C(=O)NCc4cccc(Cl)n4)cc3)CC2)C1` (stereo not shown) [Example 76, N-[(6-Chloropyridin-2-yl)methyl]-4-[(3-methyl-1,4′-bipiperidin-1′-yl)carbonyl]benzamide trifluoroacetic acid salt] it is 445 nM. On to `CC1CCCN(C2CCN(C(=O)c3ccc(C(=O)NC(C)(C)C)c(F)c3)CC2)C1` (stereo not shown) [Example 103, N-tert-Butyl-2-fluoro-4-[(3-methyl-1,4′-bipiperidin-1′-yl)carbonyl]benzamide], for which the IC50 turned out to be 73 nM.

For the compound `CC1CCCN(C2CCN(C(=O)c3ccc(C(=O)NC(C)(C)C)cc3F)CC2)C1` (stereo not shown) [Example 102, N-tert-Butyl-3-fluoro-4-[(3-methyl-1,4′-bipiperidin-1′-yl)carbonyl]benzamide hydrochloride], the 50% inhibitory concentration (IC50) was determined as 67 nM. In the case of `CC(NC(=O)c1ccc(C(=O)N2CCC(N3CCC[C@@H](C)C3)CC2)cc1)c1ccncc1` (stereo partly drawn) [Example 93, 4-{[(3R)-3-Methyl-1,4′-bipiperidin-1′-yl]carbonyl}-N-[1-(pyridin-4-yl)ethyl]benzamide], the IC50 was 135 nM.

As to `Cc1cccnc1CNC(=O)c1ccc(C(=O)N2CCC(C3CCCC(C)C3)CC2)cc1` (stereo not shown) [Example 74, 4-{[4-(3-Methylcyclohexyl)piperidin-1-yl]carbonyl}-N-[(3-methylpyridin-2-yl)methyl]benzamide trifluoroacetic acid salt], the IC50 is 155 nM.

As a reminder, the IC50 is the concentration that inhibits the measured activity by half.
